≈ marks a conversion by molar mass, not a printed value.
Columns and labels:
Type in all cases: functional
P388 [1] = assay: In vivo antitumor activity against mouse P388 cells at 1 mg/kg relative to control
P388 [2] = assay: In vivo antitumor activity against mouse P388 cells at 0.75 mg/kg relative to control
KB = assay: Cytotoxicity against human KB cells; settings: read-out: ED50 (the source's name)

## C=C1CC[C@]2(C)CC[C@]3(C)C4=CC=C5C(=CC(=O)C(O)=C5C)[C@]4(C)CC[C@@]3(C)[C@@H]2C1 [ISOIGUESTERIN]
P388 [1]
  T/C: 147%
P388 [2]
  T/C: 125%
KB
  EC50: 0.24 µg/mL (≈ 0.593 µM)

Reference: ChEMBL document CHEMBL1151372, “Isoiguesterin, a new antileukemic bisnortriterpene from Salacia madagascariensis” (1981)
